Data: patent publication US12679824B2 (Hoffmann-La Roche Inc., priority 2020, dated 2026)
Read-outs that look alike come from different tables or passages of the source.

System: Acinetobacter baumannii ATCC17961
Assay: 90% Growth Inhibitory Concentration (IC90) determination, antimicrobial susceptibility testing
Assay type: cell-based
Conditions: Acinetobacter baumannii, ATCC17961, 16 h, read-out: ATCC 17961 IC90
Summary of the method: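 Broth microdilution in Iso-Sensitest medium, compounds twofold diluted (e.g. 50–0.097 μM final), inoculum ~5×10^(5) CFU/ml, 35±2° C. OD600 was read every 20 min over 16 h. IC90 was derived from growth inhibition during logarithmic growth.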

[1] = Acinetobacter baumannii ATCC17961, Iso-Sensitest broth, growth by optical density at 600 nm over 16h, concentration inhibiting 90% of the growth

| Structure (SMILES) | IC90 [1] | IC90 |
| --- | --- | --- |
| COCC1CN(C(=O)c2ccc(NC(=O)c3ncc(-c4cn(-c5ccc(N)cn5)nc4C(F)(F)F)n3C)cc2Cl)CCN1 (centres unmarked) [Example Z69, 5-[1-(5-amino-2-pyridyl)-3-(trifluoromethyl)pyrazol-4-yl]-N-[3-chloro-4-[3-(methoxymethyl)piperazine-1-carbonyl]phenyl]-1-methyl-imidazole-2-carboxamide] | 1310 nM | – |
| Cn1c(-c2cn(-c3ccc(N)cn3)nc2C(F)(F)F)cnc1C(=O)Nc1ccc(C(=O)N2C[C@H]3CN[C@H]3C2)c(Cl)c1 [Example Z70, 5-[1-(5-amino-2-pyridyl)-3-(trifluoromethyl)pyrazol-4-yl]-N-[3-chloro-4-[(1R,5R)-3,6-diazabicyclo[3.2.0]heptane-3-carbonyl]phenyl]-1-methyl-imidazole-2-carboxamide] | 1370 nM | – |
| Cn1c(-c2cn(-c3ncc(N)cc3F)nc2C(F)(F)F)cnc1C(=O)Nc1ccc(C(=O)N2CCN(C(=O)C3CCNCC3)CC2)c(Cl)c1 [Example Z71, 5-[1-(5-amino-3-fluoro-2-pyridyl)-3-(trifluoromethyl)pyrazol-4-yl]-N-[3-chloro-4-[4-(piperidine-4-carbonyl)piperazine-1-carbonyl]phenyl]-1-methyl-imidazole-2-carboxamide] | 310 nM | – |
| Cn1c(-c2cn(-c3ccc(N)c(F)n3)nc2C(F)(F)F)cnc1C(=O)Nc1ccc(C(=O)N2CCN(C(=O)C3CCNCC3)CC2)c(Cl)c1 [Example Z72, 5-[1-(5-amino-6-fluoro-2-pyridyl)-3-(trifluoromethyl)pyrazol-4-yl]-N-[3-chloro-4-[4-(piperidine-4-carbonyl)piperazine-1-carbonyl]phenyl]-1-methyl-imidazole-2-carboxamide] | – | 250 nM |
| COc1cc(-n2cc(-c3cnc(C(=O)Nc4ccc(C(=O)N5CCN(C(=O)C6CCNCC6)CC5)c(Cl)c4)n3C)c(C(F)(F)F)n2)ccn1 [Example Z73, N-[3-chloro-4-(4-isonipecotoylpiperazine-1-carbonyl)phenyl]-5-[1-(2-methoxy-4-pyridyl)-3-(trifluoromethyl)pyrazol-4-yl]-1-methyl-imidazole-2-carboxamide] | 950 nM | – |
| Cn1c(-c2cn(-c3cnc(N)c(F)c3)nc2C(F)(F)F)cnc1C(=O)Nc1ccc(C(=O)N2CCN(C(=O)C3CCNCC3)CC2)c(Cl)c1 [Example Z74, 5-[1-(6-amino-5-fluoro-3-pyridyl)-3-(trifluoromethyl)pyrazol-4-yl]-N-[3-chloro-4-[4-(piperidine-4-carbonyl)piperazine-1-carbonyl]phenyl]-1-methyl-imidazole-2-carboxamide] | 750 nM | – |
| COc1ccc(-n2cc(-c3cnc(C(=O)Nc4ccc(C(=O)N5CCN(C(=O)C6CCNCC6)CC5)c(Cl)c4)n3C)c(C(F)(F)F)n2)cn1 [Example Z75, N-[3-chloro-4-(4-isonipecotoylpiperazine-1-carbonyl)phenyl]-5-[1-(6-methoxy-3-pyridyl)-3-(trifluoromethyl)pyrazol-4-yl]-1-methyl-imidazole-2-carboxamide] | 1110 nM | – |
| CCN(CC)C(=O)c1ccc(NC(=O)c2ncc(-c3cn(-c4ccc(N)cn4)nc3C(F)(F)F)n2C)cc1Cl [Example Z76, 5-[1-(5-amino-2-pyridyl)-3-(trifluoromethyl)pyrazol-4-yl]-N-[3-chloro-4-(diethylcarbamoyl)phenyl]-1-methyl-imidazole-2-carboxamide] | 1140 nM | – |
| Cc1cc(-n2cc(-c3cnc(C(=O)Nc4ccc(C(=O)N5CCN(C(=O)C6CCNCC6)CC5)c(Cl)c4)n3C)c(C(F)(F)F)n2)cnc1N [Example Z77, 5-[1-(6-amino-5-methyl-3-pyridyl)-3-(trifluoromethyl)pyrazol-4-yl]-N-[3-chloro-4-[4-(piperidine-4-carbonyl)piperazine-1-carbonyl]phenyl]-1-methyl-imidazole-2-carboxamide] | 410 nM | – |
| Cc1nc(N)ccc1-n1cc(-c2cnc(C(=O)Nc3ccc(C(=O)N4CCN(C(=O)C5CCNCC5)CC4)c(Cl)c3)n2C)c(C(F)(F)F)n1 [Example Z79, 5-[1-(6-amino-2-methyl-3-pyridyl)-3-(trifluoromethyl)pyrazol-4-yl]-N-[3-chloro-4-[4-(piperidine-4-carbonyl)piperazine-1-carbonyl]phenyl]-1-methyl-imidazole-2-carboxamide] | 1200 nM | – |
| Cn1c(-c2cn(-c3cc(Cl)c(N)cn3)nc2C(F)(F)F)cnc1C(=O)Nc1ccc(C(=O)N2CCN(C(=O)C3CCNCC3)CC2)c(Cl)c1 [Example Z80, 5-[1-(5-amino-4-chloro-2-pyridyl)-3-(trifluoromethyl)pyrazol-4-yl]-N-[3-chloro-4-[4-(piperidine-4-carbonyl)piperazine-1-carbonyl]phenyl]-1-methyl-imidazole-2-carboxamide] | 380 nM | – |
| Cc1cc(N)cnc1-n1cc(-c2cnc(C(=O)Nc3ccc(C(=O)N4CCN(C(=O)C5CCNCC5)CC4)c(Cl)c3)n2C)c(C(F)(F)F)n1 [Example Z81, 5-[1-(5-amino-3-methyl-2-pyridyl)-3-(trifluoromethyl)pyrazol-4-yl]-N-[3-chloro-4-[4-(piperidine-4-carbonyl)piperazine-1-carbonyl]phenyl]-1-methyl-imidazole-2-carboxamide] | 750 nM | – |
| Cc1cc(-n2cc(-c3cnc(C(=O)Nc4ccc(C(=O)N5CCN(C(=O)C6CCNCC6)CC5)c(Cl)c4)n3C)c(C(F)(F)F)n2)ncc1N [Example Z82, 5-[1-(5-amino-4-methyl-2-pyridyl)-3-(trifluoromethyl)pyrazol-4-yl]-N-[3-chloro-4-[4-(piperidine-4-carbonyl)piperazine-1-carbonyl]phenyl]-1-methyl-imidazole-2-carboxamide] | 340 nM | – |
| Cn1c(-c2cn(-c3cc(F)ncc3N)nc2C(F)(F)F)cnc1C(=O)Nc1ccc(C(=O)N2CCN(C(=O)C3CCNCC3)CC2)c(Cl)c1 [Example Z83, 5-[1-(5-amino-2-fluoro-4-pyridyl)-3-(trifluoromethyl)pyrazol-4-yl]-N-[3-chloro-4-[4-(piperidine-4-carbonyl)piperazine-1-carbonyl]phenyl]-1-methyl-imidazole-2-carboxamide] | 1220 nM | – |
| Cn1c(-c2cn(-c3ccc(N)nc3F)nc2C(F)(F)F)cnc1C(=O)Nc1ccc(C(=O)N2CCN(C(=O)C3CCNCC3)CC2)c(Cl)c1 [Example Z84, 5-[1-(6-amino-2-fluoro-3-pyridyl)-3-(trifluoromethyl)pyrazol-4-yl]-N-[3-chloro-4-[4-(piperidine-4-carbonyl)piperazine-1-carbonyl]phenyl]-1-methyl-imidazole-2-carboxamide] | 230 nM | – |
| Cn1c(-c2cn(-c3cc(N)c([N+](=O)[O-])cn3)nc2C(F)(F)F)cnc1C(=O)Nc1ccc(C(=O)N2CCN(C(=O)C3CCNCC3)CC2)c(Cl)c1 [Example Z85, 5-[1-(4-amino-5-nitro-2-pyridyl)-3-(trifluoromethyl)pyrazol-4-yl]-N-[3-chloro-4-[4-(piperidine-4-carbonyl)piperazine-1-carbonyl]phenyl]-1-methyl-imidazole-2-carboxamide] | 170 nM | – |
| Cc1nc(-n2cc(-c3cnc(C(=O)Nc4ccc(C(=O)N5CCN(C(=O)C6CCNCC6)CC5)c(Cl)c4)n3C)c(C(F)(F)F)n2)ccc1N [Example Z86, 5-[1-(5-amino-6-methylpyridin-2-yl)-3-(trifluoromethyl)pyrazol-4-yl]-N-[3-chloro-4-[4-(piperidine-4-carbonyl)piperazine-1-carbonyl]phenyl]-1-methylimidazole-2-carboxamide] | 290 nM | – |
